In brackets after ≈: the same amount, converted by molar mass.
System: Maillard reaction (Human Serum Albumin and Glucose)
Experiment: Measurement of the Maillard reaction inhibitory activity (fluorescent products of human serum albumin and glucose, 60° C., 40 hours)
Conditions: for IC50 values compared with tannic acid, ellagic acid dihydrate and aminoguanidine / Maillard reaction inhibitory activity compared with aminoguanidine (positive control) / Maillard reaction inhibition ratio (%) compared with ellagic acid dihydrate and aminoguanidine: in words; for Maillard reaction inhibitory activity compared with aminoguanidine (positive control): Tables 2 and 3; for Maillard reaction inhibition ratio (%) compared with ellagic acid dihydrate and aminoguanidine: when prepared at lower concentrations; for IC50: human, 40 h
Protocol: A pomegranate extract (containing 50% by mass of polyphenol; manufactured by Morishita Jintan Co., Ltd.), punicalin, punicalagin, oenothein B, eucarbanin B, punicacortein C, a compound represented by the formula (VI), and a compound represented by the formula (VII) were used as samples to be examined. Tannic acid and ellagic acid dihydrate were used for comparison. Aminoguanidine was used as a positive control. […], 300 μg/mL and 1,000 μg/mL, and the Maillard reaction inhibitory activity of the prepared solutions was measured. The inhibitory activity was measured as follows.
Four reaction solutions A to D shown in Table 1 below were prepared using the above-described prepared solutions of the samples, and were incubated at 60° C. for 40 hours to cause the Maillard reaction. Thereafter, 400 μL of the reaction solutions A to D was diluted with 2,400 μL of distilled water and diluted samples were obtained. The fluorescence intensity (the excitation light: 370 nm; the measurement light: 440 nm) of the diluted samples was measured and was expressed as a relative value with respect to the fluorescence intensity of 0.1 μg/mL solution of quinine sulfate that was taken as 100 to calculate the amount of fluorescent products of the Maillard reaction (quantitative value).
Next, the Maillard reaction inhibition ratio (%) with respect to the above-described prepared solutions (concentration (μg/mL)) of the samples was calculated from the obtained quantitative value using the following equation.
Equation: Inhibition ratio (%)=100−[(a−b)/(c−d)]×100 [Formula 1]
where a represents a relative value (−) of the fluorescent products of the Maillard reaction with the reaction solution A calculated in terms of quinine sulfate,
b represents a relative value (−) of the fluorescent products of the Maillard reaction in terms of quinine sulfate when the reaction solution B is used,
c represents a relative value (−) of the fluorescent products of the Maillard reaction in terms of quinine sulfate when the reaction solution C is used, and
d represents a relative value (−) of the fluorescent products of the Maillard reaction in terms of quinine sulfate when the reaction solution D is used.
Thereafter, 50% inhibition ratio (IC50) of each sample was calculated as follows. That is, the inhibition ratio was plotted with respect to the sample concentration, 4-parameter plot was performed, and the concentration showing an inhibition ratio of 50% was taken as IC50.

SMILES	IC50 [µg/mL]	Maillard reaction inhibition ratio (%) (Conc. 0.01 mg/mL)	Maillard reaction inhibition ratio (%) (Conc. 0.1 mg/mL)	Maillard reaction inhibition ratio (%) (Conc. 1 mg/mL)	Maillard reaction inhibition ratio (%) (Conc. 10 mg/mL)	IC50 values compared with tannic acid, ellagic acid dihydrate and aminoguanidine	Maillard reaction inhibitory activity compared with aminoguanidine (positive control)	Maillard reaction inhibition ratio (%) compared with ellagic acid dihydrate and aminoguanidine	Maillard reaction inhibition ratio (%) (Conc. 100 mg/mL)	Maillard reaction inhibition ratio (%) (Conc. 300 mg/mL)	Maillard reaction inhibition ratio (%) (Conc. 1000 mg/mL)	Maillard reaction inhibition ratio (%) (Conc. 0.03 mg/mL)	Maillard reaction inhibition ratio (%) (Conc. 0.3 mg/mL)
O=C(OC1C(O)OC2COC(=O)c3cc(Oc4c(C(=O)OC5C(O)OC6COC(=O)c7cc(Oc8c(C(=O)OC9C(O)OC%10COC(=O)c%11cc(Oc%12c(C(=O)OC%13C(O)OC%14COC(=O)c%15cc(O)c(O)c(O)c%15-c%15c(cc(O)c(O)c%15O)C(=O)O[C@H]%14C%13OC(=O)c%13cc(O)c(O)c(O)c%13)cc(O)c(O)c%12O)c(O)c(O)c%11-c%11c(cc(O)c(O)c%11O)C(=O)O[C@H]%10C9OC(=O)c9cc(O)c(O)c(O)c9)cc(O)c(O)c8O)c(O)c(O)c7-c7c(cc(O)c(O)c7O)C(=O)O[C@H]6C5OC(=O)c5cc(O)c(O)c(O)c5)cc(O)c(O)c4O)c(O)c(O)c3-c3c(cc(O)c(O)c3O)C(=O)O[C@H]2C1OC(=O)c1cc(O)c(O)c(O)c1)c1cc(O)c(O)c(O)c1 (stereo partly shown)		30.4	40.3	74.3	82.5	particularly low	superior Maillard reaction inhibitory activity to aminoguanidine	particularly superior					
N=C(N)NN [Aminoguanidine, reference compound]	273 (≈ 3690 µM)								40.2	51.4	62		
O=C(OC1C(O)OC2COC(=O)c3cc(Oc4c(C(=O)OC5C(O)OC6COC(=O)c7cc(Oc8c(C(=O)OC9C(O)OC%10COC(=O)c%11cc(O)c(O)c(O)c%11-c%11c(cc(O)c(O)c%11O)C(=O)O[C@H]%10C9OC(=O)c9cc(O)c(O)c(O)c9)cc(O)c(O)c8O)c(O)c(O)c7-c7c(cc(O)c(O)c7O)C(=O)O[C@H]6C5OC(=O)c5cc(O)c(O)c(O)c5)cc(O)c(O)c4O)c(O)c(O)c3-c3c(cc(O)c(O)c3O)C(=O)O[C@H]2C1OC(=O)c1cc(O)c(O)c(O)c1)c1cc(O)c(O)c(O)c1 (stereo partly shown) [Compound represented by the formula (VI)]	0.13		46.6	76.7	95.4	particularly low	superior Maillard reaction inhibitory activity to aminoguanidine						
O=C1OC2C(O)OC3COC(=O)c4cc(O)c(O)c(O)c4-c4c(O)c(O)c5oc(=O)c6c(c(O)c(O)c7oc(=O)c4c5c76)-c4c(cc(O)c(O)c4O)C(=O)O[C@H]3C2OC(=O)c2cc(O)c(O)c(O)c2-c2c1cc(O)c(O)c2O (stereo partly shown) [Punicalagin, punicalagin]		4.3	36.2	73.5	86.1	particularly low	superior Maillard reaction inhibitory activity to aminoguanidine	particularly superior				10.9	71.4
O=C1OC[C@H]2OC(O)[C@H](O)[C@@H](O)[C@@H]2OC(=O)c2cc(O)c(O)c(O)c2-c2c(O)c(O)c3oc(=O)c4c(c(O)c(O)c5oc(=O)c2c3c54)-c2c1cc(O)c(O)c2O (stereo partly shown) [Punicalin, punicalin]		7.6	32.1	73.1	84.9	particularly low	superior Maillard reaction inhibitory activity to aminoguanidine	particularly superior				6.5	69.6
O=C(OC[C@H]1O[C@@H](OC(=O)c2cc(O)c(O)c(OC(=O)c3cc(O)c(O)c(O)c3)c2)[C@H](OC(=O)c2cc(O)c(O)c(OC(=O)c3cc(O)c(O)c(O)c3)c2)[C@@H](OC(=O)c2cc(O)c(O)c(OC(=O)c3cc(O)c(O)c(O)c3)c2)[C@@H]1OC(=O)c1cc(O)c(O)c(OC(=O)c2cc(O)c(O)c(O)c2)c1)c1cc(O)c(O)c(OC(=O)c2cc(O)c(O)c(O)c2)c1 [Tannic acid, reference compound]	0.31 (≈ 0.182 µM)	12.7	48.7	65.1	68.8								

Further lines, with some results ahead:

IC50 [µg/mL]	SMILES	Maillard reaction inhibition ratio (%) (Conc. 0.01 mg/mL)	Maillard reaction inhibition ratio (%) (Conc. 0.1 mg/mL)	Maillard reaction inhibition ratio (%) (Conc. 1 mg/mL)	Maillard reaction inhibition ratio (%) (Conc. 10 mg/mL)	IC50 values compared with tannic acid, ellagic acid dihydrate and aminoguanidine	Maillard reaction inhibitory activity compared with aminoguanidine (positive control)	Maillard reaction inhibition ratio (%) compared with ellagic acid dihydrate and aminoguanidine	Maillard reaction inhibition ratio (%) (Conc. 100 mg/mL)	Maillard reaction inhibition ratio (%) (Conc. 300 mg/mL)	Maillard reaction inhibition ratio (%) (Conc. 1000 mg/mL)	Maillard reaction inhibition ratio (%) (Conc. 0.03 mg/mL)	Maillard reaction inhibition ratio (%) (Conc. 0.3 mg/mL)
0.34	O=c1oc2c(O)c(O)cc3c(=O)oc4c(O)c(O)cc1c4c23 [Ellagic acid dihydrate, ellagic acid dihydrate, reference compound]	1.9	12.0	68.3	78.4							2.2	44.8
0.43 (≈ 0.274 µM)	O=C(OC1C(O)OC2COC(=O)c3cc(Oc4c(C(=O)OC5C(O)OC6COC(=O)c7cc(O)c(O)c(O)c7-c7c(cc(O)c(O)c7O)C(=O)O[C@H]6C5OC(=O)c5cc(O)c(O)c(O)c5)cc(O)c(O)c4O)c(O)c(O)c3-c3c(cc(O)c(O)c3O)C(=O)O[C@H]2C1OC(=O)c1cc(O)c(O)c(O)c1)c1cc(O)c(O)c(O)c1 (stereo partly shown) [Eucarbanin B, eucarbanin B]		21.2	72.9	79.4		superior Maillard reaction inhibitory activity to aminoguanidine						

Reference: patent US20160058782A1, “MAILLARD REACTION INHIBITOR” (MORISHITA JINTAN CO., LTD., priority 2011, published 2016)
